“Also recorded” adds a separate entry of the source.
Tests used:
[1] = system: Experimental Autoimmune Encephalomyelitis (EAE); assay: Mouse Experimental Autoimmune Encephalomyelitis (EAE) model, clinical score; type: in vivo, C57B1.6 mice; conditions: 10 mg/kg s.c. three times weekly from day 0; day 13, 14, 16, 17, 19, 21 and 26
[2] = system: MyoF system [differentiated lung myofibroblasts+(TNFα and TGFβ)]; assay: BioMAP MyoF system; type: cell-based, Human
Excerpt: In this study LMW-DS was characterized by profiling in the BioMAP® Diversity PLUS panel. The BioMAP® panel consists of human primary cell-based systems designed to model different aspects of the human body in an in vitro format. The 12 systems in the BioMAP® Diversity PLUS panel (Table 32) allow test agent characterization in an unbiased way across a broad set of systems modeling various human disease states. The BioMA®P systems are constructed with one or more primary cell types from healthy human donors, with stimuli, such as cytokines or growth factors, added to capture relevant signaling networks that naturally occur in human tissue or pathological conditions. […]
Systems are derived from either single cell types or co-culture systems. […] Test agents prepared in either DMSO (small molecules; final concentration 0.1%) or PBS (biologics) are added at the indicated concentrations 1-hr before stimulation, and remain in culture for 24-hrs or as otherwise indicated (48-hrs, MyoF system; 72-hrs, BT system (soluble readouts); 168-hrs, BT system (secreted IgG)). […] Soluble factors from supernatants are quantified using either HTRF® detection, bead-based multiplex immunoassay or capture ELISA. Overt adverse effects of test agents on cell proliferation and viability (cytotoxicity) are detected by sulforhodamine B (SRB) staining, for adherent cells, and alamarBlue® reduction for cells in suspension. […]

human motor neurons = assay: PI staining (DNA content, cell cycle, cell numbers, apoptotic fraction), Acumen cytometry; type: cell-based; conditions: 0.01 and 0.1 mg/ml
Experimental: (§1) The study aims were to evaluate the effect of LMW-DS on cell survival and expression of differentiation proteins in three cell types, cerebral cortical neurons, motor neurons and Schwann cells, using two concentrations 0.01 and 0.1 mg/ml of LMW-DS.
(§2) Neurons were cultured as 40,000 cells per well and Schwann cells 3,000 cells per. Cells were treated after 24 hours. The number of cells per well depended on the growth phenotype, proliferative capacity, etc.
NeuroBlast was pre-warmed to 37° C. Cells were thawed in a 37° C. water bath for no longer than 2 min. 1 ml of media was gently added drop-wise. Cells were resuspended and transferred to a 15 ml tube containing 9 ml of medium. Cells were centrifuged at 200 relative centrifugal force (RCF) for 5 min. Pellet was resuspended in 5 ml of medium and cells were counted with the Cellometer. 40,000 cells per well were seeded in previously coated 96-well plates. Cells were incubated at 37° C. with 5% CO2. Cells were allowed to settle for 24 hours before drug treatment. After 24 hours NeuroBlast medium was replaced with MotorBlast medium (Lonzo).
(§3) LMW-DS was prepared in the culture media of choice for each cell line and added to the respective wells in the doses 0.01 and 0.1 mg/ml. For cell survival assays cells were analyzed after 24 and 48 hours in eight identical wells/dose/time point. Differentiation and protein expression assay was analyzed after 48 hours, also in octuplicates.
(§4) Cells were fixated in the wells. Propidium iodine was used for viability assay. For immunohistochemical analysis, neurons were stained with βIII-tubulin, which is a tubulin specific for neurons. Schwann cells were stained for Myelin Basic Protein (MBP). For the negative controls PBST (0.1% Triton-X-100 in PBS) was applied instead of primary antibodies.
(§5) The Acumen cytometer allows the direct cytometric analysis of attached cells without prior detachment. […] The protein content of the cells can also be directly measured and expressed as either ‘total protein content’ or ‘mean protein content’.

mouse cortical neurons = assay: as above; type: cell-based; conditions: 0.01 and 0.1 mg/ml
Experimental: as §1, §2
PNGM was prepared by adding PNGM Singlequots (Lonza) to PNBM medium and pre-warmed to 37° C. Cells were thawed in a 37° C. water bath for no longer than 2 min and gently transferred into a 15 ml tube. 5 ml of medium was gently added drop-wise. Cell suspension was mixed by inverting the tube carefully twice. Cells were counted with a Cellometer AUTO T4 (Nexcelom Bioscience). 40,000 cells per well were seeded in previously coated 96-well plates. Cells were incubated at 37° C. with 5% CO2. After at 2-hour incubation 80 μl of medium was removed and replaced with 80 μl of fresh medium and cells were allowed to settle for 24 hours before drug treatment.
as §3, §4, §5

Substance: low molecular weight dextran sulfate [LMW-DS]
- mean EAE score vs vehicle control [1]: significantly (#) lower mean score; also recorded: significantly lower mean score
- biomarker activities modulated [2]: merely IL-8
- Increased biomarker activity ([2]; MyoF system): IL-8
- cell loss in cultures (human motor neurons): major cell loss
- number of cells in the G2/M phase (PI content) (human motor neurons): appeared to increase the number of cells in the G2/M phase
- proliferation within a population of very small cells (human motor neurons): small increase in proliferation
- cell numbers (mouse cortical neurons): significantly reduced
- fraction of apoptotic cells (mouse cortical neurons): increased slightly
- number of cells in the G2/M phase (PI content) (mouse cortical neurons; 24 and 48 h): appeared to increase the number of cells in the G2/M phase
